Patent publication US10369183B2, “Therapeutic compositions from jamaican bitter yam and methods of making and using same” (University of The West Indies, priority 2008, dated 2019)
Marks after values point to notes of the source that are not given here.

What was measured:
Assay type in all cases: in vivo, Wistar rats
aspartate transaminase = assay: Aspartate transaminase activity of liver, kidney and spleen in diabetic rats; conditions: diabetic rats fed 1% of diet, 4 weeks, mean ± SEM
From the text: (§1) Experimental design for the animal studies: adult Wistar rats […] were divided into six groups (8 rats per group, average body weight 249.0±0.3 g) as follows: Group 1—healthy rats receiving normal diet (normal); Group 2—diabetic rats fed normal diet (diabetic); Group 3—diabetic rats fed sapogenin extract (as 1% of the diet); Group 4—diabetic rats fed diosgenin (as 1% of normal diet); Group 5—diabetic rats fed bitter yam (as 1% of diet); and Group 6 fed the bitter yam therapeutic product (BYTP—as 1% of the diet).
(§2) The rats except the control group were made diabetic using standard procedures involving streptozotocin (60 mg/kg body weight in 0.05 M citrate buffer, pH 4.5) injection intraperitonally. The control group rats were injected with an equivalent amount of buffer (0.05 M citrate buffer, pH 4.5). The normal rat diet (PMI Feeds Inc., Lab diet #5001) was a marketed laboratory rodent diet recommended for rats, mice and hamsters with the approximate chemical composition: protein 23%, fat 4.5%, fiber 6.0%, ash 8.0% and carbohydrate 58.5%. Rats were housed in stainless steel cages in a room kept on a 12-hour light-dark cycle, and were allowed to have access to their respective diets and water freely. The cages were cleaned daily. Body weight change, faecal output and total food intake were recorded weekly. The rats were fed on their respective diets for 4 weeks and sacrificed by decapitation after an overnight fast. Blood was collected in oxalate/fluoride vacutainers. The intestine, kidney, liver and spleen were excised, weighed and frozen in liquid nitrogen and stored at −20° C. until required for analysis. A section of the jejunum was cut and stored in 10% buffered formalin.

Mg^2+ ATPase = assay: Intestinal Mg2+ ATPase activity in diabetic rats; conditions: diabetic rats fed 1% of diet, mean ± SEM
acid phosphatase = assay: Acid phosphatase activity of liver, kidney and spleen in diabetic rats; conditions: diabetic rats fed 1% of diet, 4 weeks, mean ± SEM
From the text: as §1, §2

maltase = assay: Intestinal maltase activity in diabetic rats; conditions: diabetic rats fed 1% of diet, mean ± SEM
From the text: as §1, §2

diabetic rats = assay: Lipid peroxidation (conjugated dienes, TBARS) in diabetic rats; conditions: diabetic rats fed 1% of diet, 4 weeks, mean ± SEM
From the text: as §1, §2
Lipid peroxidation assays were conducted using the procedure of Tappel and Zalkin, Arch Biochim Biophys, 80: 333-336 (1959). Concentration of conjugated dienes in the liver was determined using the method of Hu et al., J Nutr, 119: 1574-1582 (1989).

Ca^2+ ATPase = assay: Intestinal Ca2+ ATPase activity in diabetic rats; conditions: diabetic rats fed 1% of diet, mean ± SEM
Experimental: (§3) Group 1—healthy rats receiving normal diet (normal); Group 2—diabetic rats fed normal diet (diabetic); […] Group 4—diabetic rats fed diosgenin (as 1% of normal diet); Group 5—diabetic rats fed bitter yam (as 1% of diet); and Group 6 fed the bitter yam therapeutic product (BYTP—as 1% of the diet). The rats except the control group were made diabetic using standard procedures involving streptozotocin (60 mg/kg body weight in 0.05 M citrate buffer, pH 4.5) injection intraperitonally. The control group rats were injected with an equivalent amount of buffer (0.05 M citrate buffer, pH 4.5). […] Rats were housed in stainless steel cages in a room kept on a 12-hour light-dark cycle, and were allowed to have access to their respective diets and water freely. The cages were cleaned daily. Body weight change, faecal output and total food intake were recorded weekly. The rats were fed on their respective diets for 4 weeks and sacrificed by decapitation after an overnight fast. Blood was collected in oxalate/fluoride vacutainers. The intestine, kidney, liver and spleen were excised, weighed and frozen in liquid nitrogen and stored at −20° C. until required for analysis. A section of the jejunum was cut and stored in 10% buffered formalin. Na^+/K^+ and Ca^+ ATPase activities were measured by the amount of inorganic phosphate released following incubation with disodium ATP and cations for the appropriate ATPase (see Bonting et al., Sodium-potassium activated adenosinetriphosphatase and cation transport, in Membranes and Ion Transport I, Bittar (Ed.). Wiley-Interscience, N.Y., pp. 257-363 (1970); and Bonting et al., Archives of Biochemistry and Biophysics 101: 47-55 (1963)). The inorganic phosphate was determined by the method of Fiske and Subarow, Journal of Biological Chemistry 66: 375-400 (1925).

alanine transaminase = assay: Alanine transaminase activity of liver, kidney and spleen in diabetic rats; conditions: diabetic rats fed 1% of diet, 4 weeks, mean ± SEM
From the text: as §1, §2

Na^+/K^+ ATPase = assay: Intestinal Na+/K+ ATPase activity in diabetic rats; conditions: diabetic rats fed 1% of diet, mean ± SEM
Experimental: as §3

glucose-6-phosphatase = assay: Glucose-6-phosphatase activity in liver and kidneys of diabetic rats; conditions: diabetic rats fed 1% of diet, mean ± SEM
From the text: as §1
as §2, with “The rats were fed on their respective diets for 4 weeks and sacrificed by decapitation after an overnight fast. Blood was collected in oxalate/fluoride vacutainers. The intestine, kidney, liver and spleen were excised, weighed and frozen in liquid nitrogen and stored at −20° C. until required for analysis. A section of the jejunum was cut and stored in 10% buffered formalin.” left out

With C[C@@H]1CC[C@@]2(OC1)O[C@H]1C[C@H]3[C@@H]4CC=C5C[C@@H](O)CC[C@]5(C)[C@H]4CC[C@]3(C)[C@H]1[C@@H]2C [diosgenin] the Aspartate transaminase (aspartate transaminase; kidney) was 5.5 ± 0.6^bc mg pyr/min/mg protein × 10^−4, the Aspartate transaminase (aspartate transaminase; liver) was 8.6 ± 0.7^ab mg pyr/min/mg protein × 10^−4 and the Aspartate transaminase (aspartate transaminase; spleen) was 7.1 ± 1.3^ab mg pyr/min/mg protein × 10^−4. The “Specific activity of Mg^2+ ATPase from rat intestinal sections” value (“Specific activity of Mg^2+ ATPase” below) (Mg^2+ ATPase; Distal) was 16.4 ± 0.6^a nmol Pi/min/mg protein, the “Specific activity of Mg^2+ ATPase” value (Mg^2+ ATPase; Mid) was 22.1 ± 0.4^b nmol Pi/min/mg protein and the “Specific activity of Mg^2+ ATPase” value (Mg^2+ ATPase; Proximal) was 27.8 ± 0.5^a nmol Pi/min/mg protein. The Acid phosphatase (acid phosphatase; kidney) was 27.3 ± 1.1^a mg PNP/min/mg protein × 10^−5, the Acid phosphatase (acid phosphatase; liver) was 17.3 ± 0.9^a mg PNP/min/mg protein × 10^−5 and the Acid phosphatase (acid phosphatase; spleen) was 9.0 ± 0.8^b mg PNP/min/mg protein × 10^−5. The “Specific activity of maltase from different sections of the rat intestine” value (maltase; Distal) was 14.0 ± 1.0.^A nmol maltase/min/mg protein, the “Specific activity of maltase from different sections of the rat intestine” value (maltase; Mid) was 17.1 ± 0.9^a nmol maltase/min/mg protein and the “Specific activity of maltase from different sections of the rat intestine” value (maltase; Upper) was 18.4 ± 1.2^a nmol maltase/min/mg protein. The “Kidney TBARS” value (diabetic rats) was 61.7 ± 6.6^a nmol/g kidney, the “Liver TBARS” value (diabetic rats) was 18.1 ± 2.1^a nmol/g liver and the Conjugated dienes (diabetic rats; liver) was 0.428 ± 0.082^a μmole/g liver. For the same compound, the “Specific activity of Ca^2+ ATPase from rat intestinal sections” value (shortened to “Specific activity of Ca^2+ ATPase”) (Ca^2+ ATPase; Distal) was 13.1 ± 0.3^b nmol Pi/min/mg protein, the “Specific activity of Ca^2+ ATPase” value (Ca^2+ ATPase; Mid) was 17.1 ± 0.4^c nmol Pi/min/mg protein and the “Specific activity of Ca^2+ ATPase” value (Ca^2+ ATPase; Proximal) was 34.9 ± 0.6^a nmol Pi/min/mg protein. For the same compound, the Alanine transaminase (alanine transaminase; kidney) was 5.4 ± 0.5^a mg pyr/min/mg protein × 10^−4, the Alanine transaminase (alanine transaminase; liver) was 14.1 ± 2.80^a mg pyr/min/mg protein × 10^−4 and the Alanine transaminase (alanine transaminase; spleen) was 10.7 ± 1.8^ab mg pyr/min/mg protein × 10^−4. The “Specific activity of Na^+/K^+ ATPase from rat intestinal sections” value (“Specific activity of Na^+/K^+ ATPase” for short) (Na^+/K^+ ATPase; Distal) was 7.3 ± 0.1^c nmol Pi/min/mg protein, the “Specific activity of Na^+/K^+ ATPase” value (Na^+/K^+ ATPase; Mid) was 9.5 ± 0.1^c nmol Pi/min/mg protein and the “Specific activity of Na^+/K^+ ATPase” value (Na^+/K^+ ATPase; Proximal) was 12.8 ± 0.2^c nmol Pi/min/mg protein. The “glucose-6-phosphatase activity, Kidney” value (glucose-6-phosphatase; kidney) was 11.0 ± 2.0^b μmole/min/mg protein × 10^−2 and the “glucose-6-phosphatase activity, Liver” value (glucose-6-phosphatase; liver) was 8.3 ± 1.0^a μmole/min/mg protein × 10^−2.
